Data set [1] is described as follows: Room temperature stability of crystalline as compared to amorphous drug substance (water content, Karl Fischer). The format is physicochemical. The following applies: for Assay / Total Impurities: Room temperature. The source says:
The Drug Substance (DS) Hydrocortisone Sodium Phosphate (HSP) is a sodium salt of phosphate ester of hydrocortisone. The high-water solubility of HSP enables the development of aqueous injectable solutions. The DS meets the requirements of USP monograph, “Hydrocortisone sodium phosphate, USP,” except for loss on drying (LOD) specification, instead the Karl Fischer method is used to test water content which meets the British Pharmacopoeia specification. This is because the crystalline form obtained through the manufacturing process is a crystalline hydrate. To meet the USP LOD specification of NMT 5%, the manufacturing process would need to involve a lyophilization step which leads to the formation of an amorphous form of HSP. […] The water content test method utilizes the British Pharmacopoiea (BP) HSP monograph semi-micro water content method instead of the less specific USP HSP monograph water content Loss on Drying method. […]

The nature of data set [2]: Stability study of HCP prototype formulations in PFS at 25° C. and 40° C. (appearance, pH, assay and related substances by stability indicating HPLC). Particulars: accelerated storage 40° C., effect of pH.
A short description of data set [3]: Genotoxicity assessment (ICH M7).
Data set [4] can be described thus: Forced degradation of hydrocortisone sodium phosphate API under stress conditions (0.1 N HCl, 0.1 N NaOH, dry heat). The class given is physicochemical. The following applies: 3 stress conditions: 0.1 N HCl, qualitative. How it is done:
To develop this method, Hydrocortisone sodium phosphate API was kept under stress conditions. These stress conditions included treatment with 0.1 N HCl, 0.1 N NaOH and dry heat. This was performed to investigate the nature of API and its compatibility with the stress conditions. It also helped generate degradation products to assess the specificity of the HPLC method under development. Information on degradation products and the conditions used to generate them was used to optimize the method for better resolution of such degradation products on chromatogram. FIGS. 3A-3C show chromatograms of HCP under stress conditions.
The proportions in which the degradants formed depended on the stress condition. Stress studies performed on the API were done for qualitative purpose only.

Regarding `C[C@]12CCC(=O)C=C1CC[C@@H]1[C@@H]2[C@@H](O)C[C@@]2(C)[C@H]1CC[C@]2(O)C(=O)COP(=O)(O)O` [hydrocortisone sodium phosphate], in data set [1] (room temperature), the hygroscopicity entry was “highly hygroscopic” and the “stability compared to crystalline form” value is listed as “not stable as compared to crystalline form”.

For the compound `C[C@]12CCC(=O)C=C1CC[C@@H]1[C@@H]2[C@@H](O)C[C@@]2(C)[C@H]1CC[C@]2(O)C(=O)COP(=O)(O)O` [Hydrocortisone Sodium Phosphate], the Assay in data set [1] (Time 0) is recorded as 100.9%; in data set [1] (Time 3 mo.), 101.4%; in data set [1] (Time 6 mo.), 99.5%. Also, the “Total Impurities” value is recorded as 0.00% in data set [1] (Time 0), 0.06% in data set [1] (Time 3 mo.) and 0.00% in data set [1] (Time 6 mo.).

For the compound `C[C@]12CCC(=O)C=C1CC[C@@H]1[C@@H]2[C@@H](O)C[C@@]2(C)[C@H]1CC[C@]2(O)C(=O)COP(=O)([O-])[O-].[Na+].[Na+]`, the Assay in data set [1] (Time 0) was found to be 97.8%; in data set [1] (Time 3 mo.), 99.0%; in data set [1] (Time 6 mo.), 96.5%. The entries for the “Total Impurities” value in data set [1] (Time 0), in data set [1] (Time 3 mo.) and in data set [1] (Time 6 mo.) were 0.20%, 1.1% and 1.5%, respectively.

Consider `C[C@]12CCC(=O)C=C1CC[C@@H]1[C@@H]2[C@@H](O)C[C@@]2(C)[C@H]1CC[C@]2(O)C(=O)COP(=O)(O)O` [Hydrocortisone sodium phosphate], for which the susceptibility to hydrolysis result in data set [2] is given as “prone to general acid-catalyzed hydrolysis at pH<7.5”. For the same compound, in data set [3], the genotoxicity assessment result is on record as “not a genotoxic product”.

As to Hydrocortisone sodium phosphate, the forced degradation outcome in data set [4] is on record as “formation of Hydrocortisone, other common degradants”.
